Results from ChEMBL document CHEMBL5370693, “Kinases Controlling Stability of the Oncogenic MYCN Protein” (ACS Med Chem Lett, 2023).
Calls of active or inactive are those of the source. The calls are words filed in the database; no cut-off is given here.

Key:
[1] = tested on: Phosphatidylinositol 4,5-bisphosphate 3-kinase catalytic subunit alpha isoform (Homo sapiens), P42336 [E545A]; experiment: Inhibition of PIK3CA E545A mutant (unknown origin) assessed as remaining activity at 15 uM incubated for 1 hr by KINOMEscan competitive binding assay relative to control
[2] = molecular target: Serine/threonine-protein kinase 38-like (Homo sapiens) (UniProt Q9Y2H1); experiment: Inhibition of NDR2 (unknown origin) assessed as remaining activity at 15 uM incubated for 1 hr by KINOMEscan competitive binding assay relative to control
[3] = tested on: Phosphatidylinositol 4,5-bisphosphate 3-kinase catalytic subunit alpha isoform (Homo sapiens), P42336 [I800L]; experiment: Inhibition of PIK3CA I800L mutant (unknown origin) assessed as remaining activity at 15 uM incubated for 1 hr by KINOMEscan competitive binding assay relative to control
[4] = molecular target: Serine/threonine-protein kinase 38-like (Homo sapiens) (UniProt Q9Y2H1); experiment: Binding affinity to STK38L in human SKNBE2 cells assessed as effect on thermal stability at 49 degC incubated for 3 hrs by CETSA assay; type: cell-based
[5] = tested on: Phosphatidylinositol 4,5-bisphosphate 3-kinase catalytic subunit alpha isoform (Homo sapiens), P42336 [M1043I]; experiment: Inhibition of PIK3CA M1043I mutant (unknown origin) assessed as remaining activity at 15 uM incubated for 1 hr by KINOMEscan competitive binding assay relative to control
[6] = molecular target: Phosphatidylinositol 4,5-bisphosphate 3-kinase catalytic subunit alpha isoform (Homo sapiens) (UniProt P42336); experiment: Inhibition of PIK3CA (unknown origin) assessed as remaining activity at 15 uM incubated for 1 hr by KINOMEscan competitive binding assay relative to control
[7] = tested on: Phosphatidylinositol 4,5-bisphosphate 3-kinase catalytic subunit alpha isoform (Homo sapiens), P42336 [H1047L]; experiment: Inhibition of PIK3CA H1047L mutant (unknown origin) assessed as remaining activity at 15 uM incubated for 1 hr by KINOMEscan competitive binding assay relative to control
[8] = tested on: Phosphatidylinositol 4,5-bisphosphate 3-kinase catalytic subunit alpha isoform (Homo sapiens), P42336 [E545K]; experiment: Inhibition of PIK3CA E545K mutant (unknown origin) assessed as remaining activity at 15 uM incubated for 1 hr by KINOMEscan competitive binding assay relative to control
[9] = tested on: Phosphatidylinositol 4,5-bisphosphate 3-kinase catalytic subunit alpha isoform (Homo sapiens), P42336 [H1047Y]; experiment: Inhibition of PIK3CA H1047Y mutant (unknown origin) assessed as remaining activity at 15 uM incubated for 1 hr by KINOMEscan competitive binding assay relative to control
[10] = tested on: Phosphatidylinositol 4,5-bisphosphate 3-kinase catalytic subunit alpha isoform (Homo sapiens), P42336 [Q546K]; experiment: Inhibition of PIK3CA Q546K mutant (unknown origin) assessed as remaining activity at 15 uM incubated for 1 hr by KINOMEscan competitive binding assay relative to control
[11] = molecular target: T1, Serine/threonine-protein kinase Chk1 (Homo sapiens) (UniProt O14757); experiment: Inhibition of CHEK1 (unknown origin) assessed as remaining activity at 15 uM incubated for 1 hr by KINOMEscan competitive binding assay relative to control
T1 sequence (whole entry): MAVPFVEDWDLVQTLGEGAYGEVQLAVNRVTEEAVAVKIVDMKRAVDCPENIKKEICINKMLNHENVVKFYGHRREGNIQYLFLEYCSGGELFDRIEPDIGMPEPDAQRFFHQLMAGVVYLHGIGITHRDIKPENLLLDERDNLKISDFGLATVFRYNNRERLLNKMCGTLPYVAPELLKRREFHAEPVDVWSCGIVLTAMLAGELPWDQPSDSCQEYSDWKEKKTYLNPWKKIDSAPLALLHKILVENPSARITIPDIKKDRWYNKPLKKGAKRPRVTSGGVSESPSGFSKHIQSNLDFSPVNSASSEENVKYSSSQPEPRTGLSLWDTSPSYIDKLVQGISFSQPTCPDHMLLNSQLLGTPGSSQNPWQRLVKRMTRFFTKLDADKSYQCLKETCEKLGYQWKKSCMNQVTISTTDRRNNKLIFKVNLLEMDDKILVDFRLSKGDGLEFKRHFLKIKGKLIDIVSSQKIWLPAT

[12] = molecular target: T2, Phosphatidylinositol 4,5-bisphosphate 3-kinase catalytic subunit delta isoform (Homo sapiens) (UniProt O00329); experiment: Inhibition of PIK3CD (unknown origin) assessed as remaining activity at 15 uM incubated for 1 hr by KINOMEscan competitive binding assay relative to control
T2 sequence (whole entry): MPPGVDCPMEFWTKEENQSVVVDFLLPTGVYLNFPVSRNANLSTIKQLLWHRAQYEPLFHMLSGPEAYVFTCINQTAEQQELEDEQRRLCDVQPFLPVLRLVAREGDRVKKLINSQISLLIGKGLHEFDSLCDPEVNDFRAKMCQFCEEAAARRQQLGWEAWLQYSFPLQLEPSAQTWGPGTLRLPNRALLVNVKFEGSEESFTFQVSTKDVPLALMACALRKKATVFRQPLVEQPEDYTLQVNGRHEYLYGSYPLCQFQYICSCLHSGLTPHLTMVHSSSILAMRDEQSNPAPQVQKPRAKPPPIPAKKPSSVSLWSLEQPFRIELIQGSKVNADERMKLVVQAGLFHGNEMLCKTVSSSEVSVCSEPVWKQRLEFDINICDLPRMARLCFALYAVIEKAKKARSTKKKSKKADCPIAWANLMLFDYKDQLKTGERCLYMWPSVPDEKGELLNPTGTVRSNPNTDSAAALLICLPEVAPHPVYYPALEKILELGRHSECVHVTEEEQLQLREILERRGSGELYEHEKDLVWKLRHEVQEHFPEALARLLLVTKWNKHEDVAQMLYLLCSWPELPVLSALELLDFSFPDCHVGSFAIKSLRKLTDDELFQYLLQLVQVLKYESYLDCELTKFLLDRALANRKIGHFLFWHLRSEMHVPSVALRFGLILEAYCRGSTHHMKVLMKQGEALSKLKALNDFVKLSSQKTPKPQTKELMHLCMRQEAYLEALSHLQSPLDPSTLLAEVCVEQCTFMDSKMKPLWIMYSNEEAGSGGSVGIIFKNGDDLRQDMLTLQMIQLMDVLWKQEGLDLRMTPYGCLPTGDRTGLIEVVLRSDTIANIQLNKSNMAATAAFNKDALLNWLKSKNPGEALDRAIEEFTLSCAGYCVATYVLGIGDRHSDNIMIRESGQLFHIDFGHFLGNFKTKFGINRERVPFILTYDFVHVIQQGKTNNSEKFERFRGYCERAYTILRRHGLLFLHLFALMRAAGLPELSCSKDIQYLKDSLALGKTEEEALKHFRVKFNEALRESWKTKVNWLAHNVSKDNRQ

[13] = molecular target: Casein kinase II subunit alpha' (Homo sapiens) (UniProt P19784); experiment: Inhibition of CSNK2A2 (unknown origin) assessed as remaining activity at 15 uM incubated for 1 hr by KINOMEscan competitive binding assay relative to control
[14] = molecular target: Casein kinase II subunit alpha (Homo sapiens) (UniProt P68400); experiment: Inhibition of CSNK2A1 (unknown origin) assessed as remaining activity at 15 uM incubated for 1 hr by KINOMEscan competitive binding assay relative to control

Activity [1] [%]	Activity [2] [%]	Activity [3] [%]	Activity [4]	Activity [5] [%]	Activity [6] [%]	Activity [7] [%]	Activity [8] [%]	Activity [9] [%]	Activity [10] [%]	Activity [11] [%]	Activity [12] [%]	Activity [13] [%]	Activity [14] [%]	SMILES
100	17	91	inactive	77	100	80	79	98	96	71	97	100	44	CC(C)CCOc1ccc2c(=O)c(-c3ccc(O)c(O)c3)coc2c1
100	48	98	–	85	91	69	66	98	84	88	93	52	14	CC(C)CC(=O)Oc1ccc2occ(-c3ccc(O)c(O)c3)c(=O)c2c1
–	–	–	inactive	–	–	–	–	–	–	–	–	–	–	CC(C)=CCc1c2c(c3occ(-c4ccc(O)c(O)c4)c(=O)c3c1O)C=CC(C)(C)O2
